Data published in ChEMBL document CHEMBL3244144, “Piperidylalkylindoles. 1. Hypotensive activity of 3-[2-(phenoxypiperidyl)ethyl]indoles” (J Med Chem, 1978).
Active and inactive are the calls of the source. The rule behind the calls is not given here.

Legend:
Rattus norvegicus [1] = experiment: Antihypertensive activity in spontaneous hypertensive rat assessed as change in systolic blood pressure at 100 mg/kg, po dosed at 0 hrs on day 1, 2 and 3 measured on day 1 by indirect tail-cuff method; format: functional, Artery
Rattus norvegicus [2] = experiment: Antihypertensive activity in spontaneous hypertensive rat assessed as change in systolic blood pressure at 100 mg/kg, po dosed at 0 hrs on day 1, 2 and 3 measured on day 3 by indirect tail-cuff method; format: functional, Artery
Rattus norvegicus [3] = experiment: Toxicity in spontaneous hypertensive rat model at 100 mg/kg, po dosed at 0 hrs on day 1, 2 and 3 measured on day 3; format: organism-based; set-up: dose 100 mg/kg, route oral; conditions: in vivo
Rattus norvegicus [4] = experiment: Antihypertensive activity in spontaneous hypertensive rat assessed as change in systolic blood pressure at 50 mg/kg, po dosed at 0 hrs on day 1, 2 and 3 measured on day 3 by indirect tail-cuff method; format: functional, Artery

| SMILES | Activity (Rattus norvegicus [1]) [mmHg] | Activity (Rattus norvegicus [2]) [mmHg] | Activity (Rattus norvegicus [1]; Artery) | Activity (Rattus norvegicus [2]; Artery) | other results |
| --- | --- | --- | --- | --- | --- |
| COc1ccc2[nH]cc(CCN3CCC(Oc4ccc(F)cc4)CC3)c2c1 | -2 | -6 |  |  |  |
| Cc1ccccc1OC1CCN(C(=O)C(=O)c2c[nH]c3ccccc23)CC1 |  |  | inactive | inactive |  |
| Fc1ccc(OC2CCN(CCc3c[nH]c4ccccc34)CC2)cc1 | -56 | -55 |  |  |  |
| O=C(C(=O)N1CCC(Oc2ccc(Cl)cc2)CC1)c1c[nH]c2ccccc12 |  |  | inactive | inactive |  |
| Cc1ccc(OC2CCN(CCc3c[nH]c4ccccc34)CC2)cc1 | -48 | -57 |  |  |  |
| Clc1ccc(OC2CCN(CCc3c[nH]c4ccccc34)CC2)cc1 | -47 | -54 |  |  |  |
| Clc1cccc(OC2CCN(CCc3c[nH]c4ccccc34)CC2)c1 | -11.2 | -8 |  |  |  |
| COc1ccc2[nH]cc(C(=O)C(=O)N3CCC(Oc4ccc(F)cc4)CC3)c2c1 |  |  | inactive | inactive |  |
| COc1cc2[nH]c(C)c(C(=O)C(=O)N3CCC(Oc4ccc(C(F)(F)F)cc4)CC3)c2cc1OC |  |  | inactive | inactive |  |
| O=C(C(=O)N1CCC(Oc2ccc(C(F)(F)F)cc2)CC1)c1c[nH]c2ccccc12 |  |  | inactive | inactive |  |
| Cc1ccc(OC2CCCN(CCc3c[nH]c4ccccc34)C2)cc1 (stereo not given) | -63 | -12 |  |  |  |
| Cc1ccccc1OC1CCN(CCc2c[nH]c3ccccc23)CC1 | -7 | -8 |  |  |  |
| O=C(C(=O)N1CCC(Oc2ccc(F)cc2)CC1)c1c[nH]c2ccccc12 |  |  | inactive | inactive |  |
| Brc1ccc(OC2CCN(CCc3c[nH]c4ccccc34)CC2)cc1 | -49 | -59 |  |  |  |
| Cc1cccc(OC2CCN(CCc3c[nH]c4ccccc34)CC2)c1 | -3 | -14 |  |  |  |
| Cc1[nH]c2ccccc2c1CCN1CCC(Oc2ccc(F)cc2)CC1 | -18 |  |  |  | Activity (Rattus norvegicus [3]): Toxic |
| COc1cc2[nH]c(C)c(CCN3CCC(Oc4ccc(C(F)(F)F)cc4)CC3)c2cc1OC | -24 | -58 |  |  |  |
| Cc1[nH]c2ccccc2c1C(=O)C(=O)N1CCC(Oc2ccc(F)cc2)CC1 |  |  | inactive | inactive |  |
| O=C(C(=O)N1CCC(Oc2cccc(Cl)c2)CC1)c1c[nH]c2ccccc12 |  |  | inactive | inactive |  |
| Cc1cccc(OC2CCN(C(=O)C(=O)c3c[nH]c4ccccc34)CC2)c1 |  |  | inactive | inactive |  |
| c1ccc(OC2CCN(CCc3c[nH]c4ccccc34)CC2)cc1 | -10 | -31 |  |  |  |
| Cc1ccc(OC2CCN(C(=O)C(=O)c3c[nH]c4ccccc34)CC2)cc1 |  |  | inactive | inactive |  |
| Fc1ccc(OC2CCN(CCc3c[nH]c4ccc(OCc5ccccc5)cc34)CC2)cc1 | -2 | -16 |  |  |  |
| Cl.O=C(NC1CCN(CCc2c[nH]c3ccccc23)CC1)c1ccccc1 [INDORAMIN HYDROCHLORIDE] |  |  |  |  | Activity (Rattus norvegicus [4]): -79 mmHg |
| O=C(C(=O)N1CCC(Oc2ccc(F)cc2)CC1)c1c[nH]c2ccc(OCc3ccccc3)cc12 |  |  | inactive | inactive |  |
| O=C(C(=O)N1CCC(Oc2ccccc2)CC1)c1c[nH]c2ccccc12 |  |  | inactive | inactive |  |
| FC(F)(F)c1ccc(OC2CCN(CCc3c[nH]c4ccccc34)CC2)cc1 | -24 |  |  |  | Activity (Rattus norvegicus [3]): Toxic |
| Cc1ccc(OC2CCCN(C(=O)C(=O)c3c[nH]c4ccccc34)C2)cc1 (stereo not given) |  |  | inactive | inactive |  |
